Experimental findings from EPA's ToxValDB 9.5 are described below.

Values joined by “and” are separate entries in the source; they are usually repeats but may differ in a detail not shown here. Equal entries are not always repeated. Bounds are passed on as bounds.

Data set [1] relates to Rattus norvegicus. The note with it: repeat dose other; oral.
Another data set deals with Mus musculus. The note with it: repeat dose other; oral.
The test system of data set [2] is Rattus norvegicus. To be noted: for NOAEL: oral.
Data set [3] has as its system Rattus norvegicus. To be noted: chronic; duration: 5 months; oral; drinking water; M/F; Sprague-Dawley.
Data set [4] concerns Rattus norvegicus. To be noted: oral; for NOAEL: M/F.
For data set [5], the system named is Rattus norvegicus. To be noted: chronic, oral, diet, M/F.
Data set [6] deals with Rattus norvegicus. To be noted: uterotrophic, injection, subcutaneous, Active.
Data set [7] has as its system Rattus norvegicus. To be noted: subchronic; oral; gavage; M; Sprague-Dawley; Clinical Observation: Salivation Perioral smudge + Body Weight Changes: Gain decrease + Food Consumption: decrease + Hematology: RBC ….
The test system of a further data set is Danio rerio. The note with it: whole body.
The subject of data set [8] is Rattus norvegicus.
[9] abbreviates: Liver cytomegaly, fatty metamorphosis, angiectasis + thyroid cystic follicles.
The mark [10] stands for this setting: duration: 2 years, RBC, ChE inhibition + reduced hemoglobin, hematocrit and RBCs.
The mark [11] stands for this setting: chronic, duration: 120 days, F, AB-type, E2 + E2:T ratio + gene expression.
The mark [12] stands for this setting: chronic, duration: 120 days, M/F, AB-type, fertilization rate + malformation rate + survival rate.
The mark [13] stands for this setting: chronic, duration: 120 days, M, AB-type, E2 + E2:T ratio + gene expression + liver: vtg1 expression + T.
The mark [14] stands for this setting: developmental, duration: 21 days, M/F, developmental lesion.
Setting [15] is: short-term, duration: 28 days, F, VTG expression.
Setting [16] is: short-term, duration: 28 days, F, thymus: Free T3.
Setting [17] is: reproduction developmental, duration: 4 days, oral, gavage, F, Sprague-Dawley, generation: P0, P0: dam body weight gain.
The mark [18] stands for this setting: short-term, duration: 3 days, injection, subcutaneous, F, Sprague-Dawley, uterus: absolute blotted uterine weight in the presence of EE.
The mark [19] stands for this setting: short-term, duration: 10 days, oral, gavage, M, BrlHan:WIST, body weight + male accessory sex gland: BC/LA weight (relative).
Where [20] appears, read: short-term, duration: 10 days, oral, gavage, M, BrlHan:WIST, male accessory sex gland: glans penis weight (relative).
[21] abbreviates: short-term, duration: 10 days, oral, gavage, M, BrlHan:WIST, male accessory sex gland: relative bulbourethral gland weight in the presence of TP + penis: relative penis weight in the absence of TP.
Setting [22] is: short-term, duration: 14 days, oral, gavage, M, Sprague-Dawley, body weight + serum LH + serum TCHO.
[23] abbreviates: short-term, duration: 14 days, oral, gavage, M, Sprague-Dawley, serum FSH.
[24] abbreviates: short-term, duration: 14 days, oral, gavage, M, Sprague-Dawley, serum T + testis: testis/body weight.
The mark [25] stands for this setting: short-term, duration: 28 days, oral, gavage, F, Sprague-Dawley, body weight.
[26] abbreviates: short-term, duration: 28 days, oral, gavage, F, Sprague-Dawley, heart: heart weight + thymus: serum T4.
The mark [27] stands for this setting: short-term, duration: 28 days, oral, gavage, M, Sprague-Dawley, adrenal gland: hypertrophy of zona fasciculata + body weight + heart: heart weight + liver: decreased hepatocytic glycogen + liver: liver ….

Regarding `[O-2].[Zn+2]` [Zinc oxide], in the data set with Rattus norvegicus [1], the LOAEL worked out at 320 mg/kg-day and the NOAEL came to 160 mg/kg-day.
Consider `[Na+].[O]=[Nb](=[O])[O-]` [Sodium niobate (NaNbO3)], for which, in the data set with Mus musculus, the LOAEL was determined as 1.55 mg/kg-day and the NOAEL worked out at 0.155 mg/kg-day.
Turning to `CC(=O)CC(C)C` [4-Methyl-2-pentanone], the NOAEL in the data set with Rattus norvegicus [1] was determined as 25 mg/kg-day; in the data set with Rattus norvegicus [2] (subchronic, duration: 13 weeks, gavage, Kidney: Increased absolute weight in females + Kidney: Increased relative weight in females + Kidney: Increased urinary protein levels in …) it was 250 mg/kg-day. In addition, the NOEL in the data set with Rattus norvegicus [2] (subchronic, duration: 90 days, inhalation, intermittent, Kidney: Effects + Liver: Increased weight) turned out to be 205 mg/m3.
`O=[N+]([O-])[O-].O=[N+]([O-])[O-].O=[N+]([O-])[O-].[Sm+3]` [Samarium nitrate] showed an LOAEL in the data set on Rattus norvegicus [3] of 0.438 mg/kg-day.
`Clc1cc2oc3c(Cl)c(Cl)c(Cl)cc3c2cc1Cl` [2,3,4,7,8-Pentachlorodibenzofuran]: the LOAEL with Rattus norvegicus [1] turned out to be 0.00016 mg/kg-day; with Rattus norvegicus [4] (chronic, duration: 105 weeks, gavage, F, Harlan Sprague-Dawley, hepatic, endocrine), 6e-06 mg/kg-day. Besides, the NOAEL was 1.6e-05 mg/kg-day in the data set with Rattus norvegicus [1] and 0.0005 mg/kg-day with Rattus norvegicus [4] (developmental, duration: 1 days, gavage, Wistar, developmental).
In the case of `ClC1(Cl)C2(Cl)C3(Cl)C4(Cl)C(Cl)(Cl)C5(Cl)C3(Cl)C1(Cl)C5(Cl)C24Cl` (stereo not given) [Mirex], the LOAEL in the data set on Rattus norvegicus [5] (setting [9]) came to 0.7 mg/kg-day. Also, the NOAEL in the data set with Rattus norvegicus [5] (setting [9]) stood at 0.07 mg/kg-day; with Rattus norvegicus [4] (chronic, duration: 2 years, diet, Fischer 344, hepatic), 0.075 mg/kg-day; with Rattus norvegicus [2] (chronic, duration: 2 years, diet, Liver: Angiectasis + Liver: Cytomegaly + Liver: Fatty metamorphosis + Thyroid: Cystic follicles), 0.07 mg/kg-day. The compound also had an LEL in the data set with Rattus norvegicus [6] (duration: 2 days) of 1 mg/day.
With `COP(=S)(OC)Oc1ccc([N+](=O)[O-])cc1` [Methyl parathion], in the data set with Rattus norvegicus [5] (setting [10]), the LEL came out at 0.25 mg/kg-day and the NOEL stood at 0.025 mg/kg-day. In addition, the no observed adverse effect level (NOAEL) with Rattus norvegicus [4] (chronic, duration: 28 months, diet, Sprague-Dawley, hematological) is 0.025 mg/kg-day. Also, the LOAEL in the data set with Rattus norvegicus [4] (subchronic, duration: 13 weeks, gavage, M, Wistar, neurological) was found to be 0.22 mg/kg-day. For the same compound, the NOAEL in the data set on Rattus norvegicus [2] (subchronic, duration: 90 days, diet, Erythrocytes: Cholinesterase inhibition) was 0.24 mg/kg-day.
On to `Oc1ccc(C(c2ccc(O)cc2)(C(F)(F)F)C(F)(F)F)cc1` [Bisphenol AF], for which the NOEL was under 30 mg/kg-day with Rattus norvegicus [7]; 0.025 mg/L in the data set with Danio rerio (setting [11]); 0.025 mg/L with Danio rerio (setting [12]); 0.005 mg/L in the data set on Danio rerio (setting [13]); 1 mg/L with Danio rerio (setting [14]); 0.05 mg/L in the data set on Danio rerio (setting [15]). The NOEL is 0.25 mg/L in the data set on Danio rerio (setting [16]); 0.25 mg/L with Danio rerio (short-term, duration: 28 days, M, VTG expression); 0.05 mg/L in the data set on Danio rerio (short-term, duration: 28 days, M, body weight + length); 300 mg/kg-day in the data set on Rattus norvegicus [8] (setting [17]); 100 mg/kg-day in the data set with Rattus norvegicus [8] (short-term, duration: 3 days, injection, subcutaneous, F, Crj:CD, body weight); 100 mg/kg-day in the data set with Rattus norvegicus [8] (short-term, duration: 3 days, injection, subcutaneous, F, Sprague-Dawley, body weight in the absence of EE + body weight in the presence of EE). The NOEL was determined as 4 mg/kg-day in the data set on Rattus norvegicus [8] (setting [18]); 50 mg/kg-day in the data set with Rattus norvegicus [8] (setting [19]); 600 mg/kg-day with Rattus norvegicus [8] (short-term, duration: 10 days, oral, gavage, M, BrlHan:WIST, male accessory sex gland: Cowper's gland weight (relative) + male accessory sex gland: seminal vesicle weight (relative) + male accessory …); 200 mg/kg-day in the data set with Rattus norvegicus [8] (setting [20]); 600 mg/kg-day in the data set with Rattus norvegicus [8] (short-term, duration: 10 days, oral, gavage, M, BrlHan:WIST, male accessory sex gland: relative bulbourethral gland weight in the absence of TP + male accessory sex gland: relative seminal vesicle …); 200 mg/kg-day in the data set with Rattus norvegicus [8] (setting [21]). Further, the NOEL in the data set on Rattus norvegicus [8] (setting [22]) worked out at 10 mg/kg-day; in the data set with Rattus norvegicus [8] (setting [23]) it was 2 mg/kg-day; in the data set with Rattus norvegicus [8] (setting [24]), 50 mg/kg-day; in the data set with Rattus norvegicus [8] (short-term, duration: 14 days, oral, gavage, M, Sprague-Dawley, testis: testis weight), 200 mg/kg-day; in the data set with Rattus norvegicus [8] (short-term, duration: 28 days, oral, gavage, F, Sprague-Dawley, adrenal gland: hypertrophy of zona fasciculata + bone marrow: decreased hematopoiesis + brain: brain weight + liver: decreased hepatocytic …), 100 mg/kg-day; with Rattus norvegicus [8] (setting [25]) it was 10 mg/kg-day. The NOEL with Rattus norvegicus [8] (setting [26]) was determined as 30 mg/kg-day; in the data set on Rattus norvegicus [8] (short-term, duration: 28 days, oral, gavage, M, Sprague-Dawley, adrenal gland: adrenals weight + bone marrow: decreased hematopoiesis + brain: brain weight + spleen: decreased extramedullary hematopoiesis…), 100 mg/kg-day; in the data set with Rattus norvegicus [8] (setting [27]), 30 mg/kg-day. For the same compound, the LEL in the data set on Rattus norvegicus [6] (duration: 3 days) is 4 mg/kg-day and 8 mg/kg-day and 4.04 mg/kg-day. For the same compound, the LOEL with Danio rerio (setting [11]) was 0.125 mg/L; with Danio rerio (setting [12]), 0.125 mg/L; in the data set on Danio rerio (chronic, duration: 120 days, M/F, AB-type, hatchability), 0.005 mg/L; in the data set with Danio rerio (setting [13]), 0.025 mg/L; with Danio rerio (setting [14]), 1.5 mg/L; in the data set with Danio rerio (short-term, duration: 21 days, M/F, vitellogenin) it was 0.5 mg/L. The LOEL with Danio rerio (setting [15]) was 0.25 mg/L; in the data set on Danio rerio (short-term, duration: 28 days, F, condition factor), 0.05 mg/L; with Danio rerio (setting [16]), 1 mg/L; in the data set on Danio rerio (short-term, duration: 28 days, M, 17beta-estradiol + VTG expression), 1 mg/L; with Danio rerio (short-term, duration: 28 days, M, body weight + length + T) it was 0.25 mg/L; in the data set on Rattus norvegicus [8] (setting [17]), 400 mg/kg-day. Also, the LOEL with Rattus norvegicus [8] (short-term, duration: 3 days, injection, subcutaneous, F, Crj:CD, uterus: uterine dry weight (absolute) + uterus: uterine dry weight (relative)) came out at 8 mg/kg-day; with Rattus norvegicus [8] (short-term, duration: 3 days, injection, subcutaneous, F, Sprague-Dawley, uterus: absolute blotted uterine weight in the absence of EE + uterus: relative blotted uterine weight in the absence of EE + uterus: …) it was 4 mg/kg-day; in the data set on Rattus norvegicus [8] (setting [18]), 20 mg/kg-day; in the data set with Rattus norvegicus [8] (setting [19]) it was 200 mg/kg-day; in the data set on Rattus norvegicus [8] (setting [20]), 600 mg/kg-day; in the data set on Rattus norvegicus [8] (setting [21]), 600 mg/kg-day. Further, the LOEL with Rattus norvegicus [8] (short-term, duration: 10 days, oral, gavage, M, BrlHan:WIST, male accessory sex gland: relative seminal vesicle weight in the presence of TP + penis: relative penis weight in the presence of TP) was 50 mg/kg-day; in the data set on Rattus norvegicus [8] (setting [22]), 50 mg/kg-day; in the data set on Rattus norvegicus [8] (setting [23]), 10 mg/kg-day; in the data set with Rattus norvegicus [8] (setting [24]), 200 mg/kg-day; in the data set on Rattus norvegicus [8] (setting [25]), 30 mg/kg-day; with Rattus norvegicus [8] (setting [26]) it was 100 mg/kg-day. Moreover, the LOEL with Rattus norvegicus [8] (setting [27]) was determined as 100 mg/kg-day.

In general, LOAEL refers to the lowest tested level that showed an adverse finding. As usually defined, the NOAEL is the highest dose or exposure tested at which no adverse effect was seen.
